Data reported in patent US7648977B2, “Pharmaceutical composition having a ruthenium oxalato compound and method of using the same” (The University of Hong Kong, priority 2005, dated 2010).

Key:
HIV-1(IIIB) = details: 0.5-50 μM, viral p24 antigen, FIG. 8
Description: GHOST/CXCR4 and PBMC cells in 24-well plate (5×10^5 cells/well) were pretreated with compounds (400 μL) for an hour at 37° C. and subsequently infected in triplicate with a panel of CCR5-tropic HIV-1 isolates (with the addition of 5 μL of HIV-1 stock to each well, total p24 content=1500 pg) for 3 h. Following infection, the cells were washed to remove residual viral inoculums and cultured in the presence of compounds (400 μL) for 3 or 7 days. Culture supernatants were harvested and viral replication was measured by determination of viral p24 antigen concentration by ELISA (HIV-1 p24 antigen Kit, Beckman Coulter). Compounds were tested in triplicate at 3 concentrations ranging from 0.5-50 μM. AZT was also examined as a reference standard.

[1] = tested on: HIV-1 infected Hut/CCR5 cells; experiment: TUNEL assay, cytoprotective activity in HIV-1 infected Hut/CCR5 cells; format: cell-based; details: HIV-1 infected Hut/CCR5 cells, 0.5, 5 and 50 μM
Description: The TUNEL reaction preferentially labels DNA strand breaks generated during apoptosis. This is done by labeling DNA strand breaks by terminal deoxynucleotidyl transferase (TdT), which catalyzes polymerization of labeled nucleotides to free 3′-OH DNA ends in a template-independent manner (TUNEL-reaction). The TUNEL method (In Situ Cell Death Detection Kit, Fluorescein, Roche) combined with flow cytometry was used for the measurement of apoptosis (Gorczyca et al. Cancer Res. (1993), 53, 1945). The quantitative analysis of 3′-OH ends was performed using the MDADS analysis program (Beckman Coulter).
HIV-1 infected Hut/CCR5 cells were treated with 2 (0.5, 5, and 50 μM) for 3 days. The cells were fixed (in 4% paraformaldehyde in PBS, pH 7.4) and permeabilisated (0.1% Triton X-100 in 0.1% sodium citrate), The cells were then rinsed twice with PBS and labeled with 50 μL TUNEL reaction mixture (50 μL Enzyme solution +450 μL Label solution) for 60 min. at 37° C. in a humidified atmosphere in dark. The samples were rinsed with PBS three times and resuspended in 1 mL PBS containing 5 μg/mL of PI and 0.1% RNAse. Flow cytometry was performed on a FACScan cytometry. The red (PI) and green (fluorescein) fluorescence emissions from each cell were measured.

HIV-1 RT = HIV-1 RT (Human immunodeficiency virus type 1 group M subtype B, UniProt P04585); details: percentage luminescence relative to untreated control
Description: The inhibitory effect of different compounds on HIV-1 RT activities were assayed using a commercial assay kit (Reverse Transcriptase Assay, Chemiluminescent, Roche). […] (30 min.). The ELISA assays were conducted by following the manufacturer's instructions (Eberle and Seibl J. Virol. Methods (1992), 40, 347). In general, the indicated components were added to the corresponding wells of the microtitre plate from the kit and incubated for 1 h at 37° C. The solution in each well was then completely removed and the wells were rinsed five times with 250 μL of washing buffer per well. During each washing step, the washing buffer was left in the wells for a minimum of 30 seconds. The microtitre plate modules were covered and dried with a blotting paper, followed by the incubation with anti-DIG-POD working dilution was added (200 μL per well) for 1 h at 37° C. The solution was discarded followed by the washing and drying steps as described above. The POD substrate was added (200 μL per well) and was incubated at room temperature for 15 min. The chemiluminescent signal was measured and quantified using a microtitre plate chemiluminescence reader. The HIV-1 RT activities were evaluated based on percentage luminescence of the solutions relative to the negative control (untreated population).

HIV-1(BaL) = details: Hut/CCR5 cells, 3 or 7 days, 0.5-50 μM, viral p24 antigen
Description: Following infection, the cells were washed to remove residual viral inoculums and cultured in the presence of compounds (400 μL) for 3 or 7 days. Culture supernatants were harvested and viral replication was measured by determination of viral p24 antigen concentration by ELISA (HIV-1 p24 antigen Kit, Beckman Coulter). Compounds were tested in triplicate at 3 concentrations ranging from 0.5-50 μM.

Na7[Ru4(μ3-O)4(C2O4)6] [Complex 2]
inhibition of HIV-1 replication in GHOST/CXCR4 cells (HIV-1(IIIB)): inhibited | inhibition of HIV-1 replication in PBMC cells (HIV-1(IIIB)): inhibited | cytoprotective activity (TUNEL) [1]: showed cytoprotective activity | inhibition of HIV-1 RT activity (HIV-1 RT): inhibited | inhibition of HIV-1(BaL) replication (HIV-1(BaL)): inhibited
